Literature values as cited in patent US20070141015A1, “TOPICAL ADMINISTRATION CARRIER COMPOSITION AND THERAPEUTIC FORMULATIONS COMPRISING SAME” (priority 2005, published 2007).

[1] = antihypertensive use, chronic 30 mg/day

Compound: Nc1cc(N2CCCCC2)nc(N)[n+]1[O-] [Minoxidil]
- 1 hour peak plasma level (antihypertensive use, after 5 mg starting dose): Antihypertensive: 1 hour peak after 5 mg starting dose: 60 ng/mL plasma;
- steady-state peak level [1]: 250 ng/mL
- steady-state trough level [1]: 40 ng/mL
- plasma level (topical hair growth stimulant, 1 mL 2% b.i.d. dose): Less than 2-30 ng/ML plasma.
